Experimental data taken from patent US9567569B2, “Methods of culturing and expanding mesenchymal stem cells” (Gamida Cell Ltd., priority 2012, dated 2017).
Entries after “also recorded” stand apart in the source; their conditions may differ.

Columns and labels:
CD34+ cells = conditions: cited from earlier work
[1] = test system: Human bone marrow derived mesenchymal cells; assay: Expansion of mesenchymal stem cells in culture in the presence or absence of SR1 (cell counts, doubling time); type: cell-based
Description: (§1) Isolation—Human bone marrow derived mesenchymal cells were isolated based on their plastic adherence potential in expansion medium containing: High glucose DMEM and 10% Fetal Bovine Serum (FBS, Hyclone, Logan, Utah, USA), 0.05 mg/ml Gentamicin (Sigma) and 2 mM L-glutamine (Biological Industries, Israel). Cells were allowed to adhere for 3-4 days and non-adherent cells were washed out with medium changes. Expansion—Mesenchymal stem cells were isolated using plastic adherence method, as described above and cultured for several passages in a medium which comprises fetal bovine serum in the presence or absence of SR1 for three passages (StemRegenin1, BioVision cat#1967-1). Three concentrations 250, 1000 and 2500 nM of SR1 were examined. At about 80% confluence, adherent cells were collected following trypsin treatment, counted, characterized and re-seeded at a concentration of 1×10^3 cells/cm^2.

[2] = target: T1, aryl hydrocarbon receptor (AhR) (Homo sapiens, UniProt P35869); conditions: cited from earlier work
T1 sequence (P35869 11-848): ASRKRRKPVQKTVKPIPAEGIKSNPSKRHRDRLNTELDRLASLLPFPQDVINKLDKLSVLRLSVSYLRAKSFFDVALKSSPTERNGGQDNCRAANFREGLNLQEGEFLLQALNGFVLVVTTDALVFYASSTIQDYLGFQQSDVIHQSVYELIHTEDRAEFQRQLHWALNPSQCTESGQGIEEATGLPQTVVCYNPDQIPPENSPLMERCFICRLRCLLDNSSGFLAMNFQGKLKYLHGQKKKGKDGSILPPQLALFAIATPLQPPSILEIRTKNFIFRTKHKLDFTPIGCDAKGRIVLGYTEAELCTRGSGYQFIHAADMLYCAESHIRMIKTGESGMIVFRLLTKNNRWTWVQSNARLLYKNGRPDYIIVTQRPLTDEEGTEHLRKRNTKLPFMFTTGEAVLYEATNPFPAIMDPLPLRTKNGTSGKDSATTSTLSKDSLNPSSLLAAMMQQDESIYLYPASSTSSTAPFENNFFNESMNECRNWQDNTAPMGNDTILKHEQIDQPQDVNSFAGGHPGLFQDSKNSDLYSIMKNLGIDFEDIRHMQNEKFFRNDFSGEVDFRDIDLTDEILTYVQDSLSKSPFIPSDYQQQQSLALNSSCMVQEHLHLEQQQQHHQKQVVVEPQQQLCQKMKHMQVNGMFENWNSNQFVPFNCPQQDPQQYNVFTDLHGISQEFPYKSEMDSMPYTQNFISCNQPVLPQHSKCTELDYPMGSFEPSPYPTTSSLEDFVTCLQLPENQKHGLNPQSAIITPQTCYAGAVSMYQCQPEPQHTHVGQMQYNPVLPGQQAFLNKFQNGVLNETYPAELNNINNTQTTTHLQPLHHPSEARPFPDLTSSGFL

[3] = test system: Human bone marrow derived mesenchymal cells; assay: FACS measurement of CD45, CD105 and VCAM1/CD106 on cultured mesenchymal stem cells; type: cell-based; conditions: with vs without SR1 under identical conditions
Description: as §1, with “Measurement of CD45, CD105” for “Three concentrations 250, 1000”, “VCAM1/CD106: following Trypsin treatment the” for “2500 nM of SR1 were examined. At about 80% confluence, adherent”, “analyzed for CD45, CD105 or CD106 expression in FACS using anti-human CD45 FITC, CD105 PE or CD106 APC antibodies.” for “collected following trypsin treatment, counted, characterized and re-seeded at a concentration of 1×10^3 cells/cm^2.”

## CC(C)n1cnc2c(NCCc3ccc(O)cc3)nc(-c3csc4ccccc34)nc21 [SR1, 4-(2-(2-(benzo[b]thiophen-3-yl)-9-isopropyl-9H-purin-6-ylamino)ethyl)phenol]
CD34+ cells
  ex vivo expansion of CD34+ cells: promote the ex vivo expansion of CD34+ cells
[1]; SR1 250, 1000 and 2500 nM vs control, three passages, FIGS. 1-3
  effect on the proliferation of mesenchymal stem cells (cumulative count): proliferate more rapidly; also recorded: positive effect
[1]; of 250, 1000 and 2500 nM examined
  most effective concentration for proliferation of mesenchymal stem cells: 250 nM
[1]; passage 2, with vs without SR1, FIG. 3
  doubling time of mesenchymal stem cells: decreased
[1]; with vs without SR1
  time for cultures to reach confluence: substantially shorter period of time
[2]
  action on the aryl hydrocarbon receptor: antagonizing
[3]; FIG. 4
  CD45 and CD105 levels (percentage of CD105+CD45- cells): same CD45 and CD105 levels
[3]; FIG. 5
  VCAM1/CD106 expression (percentage of CD106+ cells): increase the fraction of CD106+ cells; also recorded: express more VCAM1/CD106 adhesion molecule
